From patent US20250098683A1 (priority 2018, published 2025)

Legend:
bacteria [1] = experiment: Seed wash liquid streaked on LB media plates, inspected for bacterial growth; assay type: cell-based; conditions: treated five minutes, 37 C overnight
Protocol: (§1) Carrot, Swiss chard, and spinach seeds (1 kg, 5 kg, and 5 kg respectively) were placed into separate Petri dishes. From each of these seeds, 9 samples were taken, each sample weighing 50 grams. […] The liquid of carrot and Swiss chard treatments were streaked on LB media plates, and kept in a 37 degrees Celsius incubator overnight, and inspected for bacterial growth on the following day. The treated seed were dried in 40 C oven for three days, and some seeds were placed on LB or PDA plates.

bacteria [2] = experiment: Treated, dried seeds placed on LB or PDA plates; assay type: cell-based
Protocol: as §1

[Na+].[O-]Cl [1.2% bleach, Sodium hypochlorite]
bacteria in wash liquid after Swiss chard seeds were washed (bacteria [1]; Swiss chard seeds): some bacteria
bacteria in wash liquid after carrot seeds were washed (bacteria [1]; carrot seeds): some bacteria
Swiss chard seeds from which bacteria were found (bacteria [2]; Swiss chard seeds on LB plates): about 50%
carrot seeds from which bacteria were found (bacteria [2]; carrot seeds, three days after placing on LB plates): about 50%
microbes found from spinach seed (bacteria [2]; spinach seeds on plates): both fungal and bacterial microbes were found
